Results on 51 compounds are retold here after ChEMBL document CHEMBL4308829, “Design and Synthesis of Novel Positive Allosteric Modulators of α7 Nicotinic Acetylcholine Receptors with the Ability To Rescue Auditory Gating Deficit in Mice” (J Med Chem, 2018).

Each structure is given as a SMILES string. Calls of active or inactive are those of the source.

For the first assay, the target named is T1, Neuronal acetylcholine receptor subunit alpha-7 (Homo sapiens, UniProt P36544). The experiment in a line: Positive allosteric modulation of human alpha7 nAChR expressed in Xenopus laevis oocytes assessed as increase in acetylcholine-induced channel current at -90 mV holding potential preincubated for 2 mins followed by co-application with acetylcholine for 10 secs by two-electrode voltage clamp method. The format is cell-based. A general note: In two-electrode clamp one electrode senses voltage and the other passes current.
T1 sequence (P36544 whole entry): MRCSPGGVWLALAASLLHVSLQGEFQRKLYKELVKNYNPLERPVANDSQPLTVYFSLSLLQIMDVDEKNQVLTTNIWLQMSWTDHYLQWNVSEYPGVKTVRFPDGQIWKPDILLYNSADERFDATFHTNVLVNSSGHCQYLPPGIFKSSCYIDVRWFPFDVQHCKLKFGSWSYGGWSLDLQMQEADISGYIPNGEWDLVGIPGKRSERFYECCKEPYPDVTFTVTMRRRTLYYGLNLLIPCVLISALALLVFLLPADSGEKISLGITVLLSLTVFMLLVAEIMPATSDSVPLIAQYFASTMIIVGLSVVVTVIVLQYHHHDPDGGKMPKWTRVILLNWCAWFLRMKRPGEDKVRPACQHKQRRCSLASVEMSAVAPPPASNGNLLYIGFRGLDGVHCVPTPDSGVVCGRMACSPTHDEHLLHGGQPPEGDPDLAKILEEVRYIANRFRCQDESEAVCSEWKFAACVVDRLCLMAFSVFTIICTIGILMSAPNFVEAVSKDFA
As for `Cc1cccc(Cl)c1-n1cnc2nc(SCc3ccccc3F)sc2c1=O`, the EC50 worked out at 2.05 µM.
Still for that read-out and setting: the figure for `Cc1cccc(Cl)c1-n1cnc2nc(SCc3ccc(F)cc3)sc2c1=O` is 2.17 µM.
On the same count and under the same terms, the figure for `Cc1cccc(Cl)c1-n1cnc2nc(SCc3cccc(F)c3)sc2c1=O` is 7.65 µM; for `Cc1cccc(Cl)c1-n1cnc2nc(SCc3ccc(F)cc3F)sc2c1=O` it is 3.54 µM.
On to `Cc1ccc(Nc2nc3ncn(-c4c(C)cccc4Cl)c(=O)c3s2)cc1`, for which the EC50 stood at 8.45 µM.
With `Cc1ccc(Nc2nc3ncn(-c4c(C)cccc4Cl)c(=O)c3s2)cc1F`, the EC50 was found to be 5.65 µM.
`Cc1cccc(Cl)c1-n1cnc2nc(SCc3ccc(Cl)cc3)sc2c1=O`: the concentration for a half-maximal effect (EC50) stood at 1.19 µM.
For `Cc1ccc(C(=O)Nc2nc3ncn(-c4c(C)cccc4Cl)c(=O)c3s2)cc1`, the EC50 came to 20.4 µM.

The next assay has as its system Mus musculus. The assay is described as follows: Anti-schizophrenic activity in C57BL/6J mouse assessed as protection against MK-801-induced auditory gating deficit by measuring prepulse inhibition impairment at 1 mg/kg, ip at 8 to 16 dB prepulse intensity (reference value: 11%). The format is functional. The arrangement: scale not given: the % may be the effect or the level left.
With `CN1CCN(C2=Nc3cc(Cl)ccc3Nc3ccccc32)CC1` [CLOZAPINE], the Activity amounted to 32%.

The target in the next assay is T1, Neuronal acetylcholine receptor subunit alpha-7. The assay is described as follows: Agonist activity at human alpha7 nAChR expressed in Xenopus laevis oocytes assessed as induction of channel current at -90 mV holding potential by two-electrode voltage clamp method. The class given is cell-based.
With `Cc1cccc(Cl)c1-n1cnc2nc(SCc3ccccc3F)sc2c1=O`, the result was inactive.
Still for that read-out and setting: the entry for `Cc1cccc(Cl)c1-n1cnc2nc(Nc3ccccc3)sc2c1=O` is “inactive”; for `Cc1ccccc1-n1cnc2nc(SCc3ccccc3)sc2c1=O` it is “inactive”; for `Cc1cccc(Cl)c1-n1cnc2nc(Nc3ccc(Br)cc3)sc2c1=O` it is “inactive”.
Still for that read-out and setting: the entry for `Cc1nc(Cl)cc(Nc2nc3ncn(-c4c(C)cccc4Cl)c(=O)c3s2)n1` is “inactive”.
On the same count and under the same terms, the entry for `Cc1ccc(Nc2nc3ncn(-c4c(C)cccc4Cl)c(=O)c3s2)cc1C` is “inactive”; for `Cc1cc(Cl)cc(Nc2nc3ncn(-c4c(C)cccc4Cl)c(=O)c3s2)c1` it is “inactive”; for `Cc1cccc(Cl)c1-n1cnc2nc(SCc3ccc(F)cc3)sc2c1=O` it is “inactive”.
As to `Cc1cc(C)cc(Nc2nc3ncn(-c4c(C)cccc4Cl)c(=O)c3s2)c1`, the result was inactive.
The same measure, in the same setting: the entry for `Cc1cccc(Cl)c1-n1cnc2nc(Nc3cccc(F)c3)sc2c1=O` is “inactive”.
In the case of `Cc1cccc(Cl)c1-n1cnc2nc(Nc3ccccn3)sc2c1=O`, the result was inactive.
Turning to `O=c1c2sc(SCc3ccccc3)nc2ncn1-c1cccc(F)c1`, the result was inactive.
As for `Cc1ccc(S(=O)(=O)Nc2nc3ncn(-c4c(C)cccc4Cl)c(=O)c3s2)cc1`, the outcome was inactive.
The same measure, in the same setting: the entry for `O=c1c2sc(SCc3ccccc3)nc2ncn1-c1ccc(Cl)cc1` is “inactive”.
The same measure, in the same setting: the entry for `Cc1ccc(CNc2nc3ncn(-c4c(C)cccc4Cl)c(=O)c3s2)cc1` is “inactive”.
Same read-out and setting: the entry for `Cc1cccc(Cl)c1-n1cnc2nc(SCc3cccc(F)c3)sc2c1=O` is “inactive”; for `Cc1cccc(Cl)c1-n1cnc2nc(SCc3ccc(F)cc3F)sc2c1=O` it is “inactive”; for `Cc1cccc(Cl)c1-n1cnc2nc(SCCc3ccccc3)sc2c1=O` it is “inactive”.
On to `Cc1cccc(Cl)c1Nc1ncnc2nc(SCc3ccccc3)sc12`, for which the outcome was inactive.
On the same count and under the same terms, the entry for `Cc1cccc(Cl)c1-n1cnc2nc(Nc3ccccc3F)sc2c1=O` is “inactive”.
For the compound `Cc1cccc(Cl)c1-n1cnc2nc(SCCCc3ccccc3)sc2c1=O`, the result was inactive.
Same read-out and setting: the entry for `COc1ccc(CSc2nc3ncn(-c4c(C)cccc4Cl)c(=O)c3s2)cc1` is “inactive”.
`Cc1cccc(Cl)c1-n1cnc2nc(Nc3ccc(Cl)cc3)sc2c1=O`: the outcome was inactive.
`O=c1c2sc(SCc3ccccc3)nc2ncn1-c1ccccc1Cl`: the outcome was inactive.
As for `Cc1ccc(Nc2nc3ncn(-c4c(C)cccc4Cl)c(=O)c3s2)cc1`, the result was inactive.
For the compound `Cc1cccc(Cl)c1-n1cnc2nc(Nc3cccc(Cl)c3)sc2c1=O`, the outcome was inactive.
On to `Cc1ccc(Nc2nc3ncn(-c4c(C)cccc4Cl)c(=O)c3s2)cc1F`, for which the outcome was inactive.
`Cc1cccc(Cl)c1-n1cnc2nc(NCc3ccccc3)sc2c1=O`: the outcome was inactive.
Take `Cc1cccc(Cl)c1-n1cnc2nc(Nc3cc(Cl)ncn3)sc2c1=O`: the outcome was inactive.
Same read-out and setting: the entry for `Cc1cccc(Cl)c1-n1cnc2nc(Nc3ccc(Cl)nn3)sc2c1=O` is “inactive”; for `Cc1cccc(Cl)c1-n1cnc2nc(Nc3ccncn3)sc2c1=O` it is “inactive”; for `Cc1ccc(Sc2nc3ncn(-c4c(C)cccc4Cl)c(=O)c3s2)cc1` it is “inactive”.
Still for that read-out and setting: the entry for `Cc1ccccc1Nc1nc2ncn(-c3c(C)cccc3Cl)c(=O)c2s1` is “inactive”; for `Cc1ccc(CSc2nc3ncn(-c4c(C)cccc4Cl)c(=O)c3s2)cc1` it is “inactive”.
In the case of `Cc1cccc(Cl)c1-n1cnc2nc(SCc3ccc(Cl)cc3)sc2c1=O`, the result was inactive.
Regarding `Cc1cc(Nc2nc3ncn(-c4c(C)cccc4Cl)c(=O)c3s2)cc(C)c1C`, the outcome was inactive.
Still for that read-out and setting: the entry for `Cc1cccc(Cl)c1-n1cnc2nc(SCc3ccc(Br)cc3)sc2c1=O` is “inactive”; for `Cc1cccc(Nc2nc3ncn(-c4c(C)cccc4Cl)c(=O)c3s2)c1` it is “inactive”; for `Cc1cccc(Cl)c1-n1cnc2nc(Nc3ccc(F)c(F)c3)sc2c1=O` it is “inactive”.
With `Cc1ccc(N(C)c2nc3ncn(-c4c(C)cccc4Cl)c(=O)c3s2)cc1`, the outcome was inactive.
On the same count and under the same terms, the entry for `Cc1ccc(-c2nc3ncn(-c4c(C)cccc4Cl)c(=O)c3s2)cc1` is “inactive”; for `O=c1c2sc(SCc3ccccc3)nc2ncn1-c1ccc(F)cc1` it is “inactive”; for `Cc1ccc(Nc2ccc3ncn(-c4c(C)cccc4Cl)c(=O)c3c2)cc1` it is “inactive”.
In the case of `Cc1cccc(Cl)c1-n1cnc2nc(Nc3ccc(F)cc3)sc2c1=O`, the result was inactive.
Consider `CCc1ccc(Nc2nc3ncn(-c4c(C)cccc4Cl)c(=O)c3s2)cc1`, for which the outcome was inactive.
Turning to `Cc1ccc(C(=O)Nc2nc3ncn(-c4c(C)cccc4Cl)c(=O)c3s2)cc1`, the outcome was inactive.
Regarding `O=c1c2sc(SCc3ccccc3)nc2ncn1-c1ccccc1F`, the result was inactive.
Still for that read-out and setting: the entry for `COc1ccc(Nc2nc3ncn(-c4c(C)cccc4Cl)c(=O)c3s2)cc1` is “inactive”; for `CCCNc1nc2ncn(-c3c(C)cccc3Cl)c(=O)c2s1` it is “inactive”.
Still for that read-out and setting: the entry for `Cc1cccc(Cl)c1-n1cnc2nc(Nc3ccc(OC(F)(F)F)cc3)sc2c1=O` is “inactive”.

A further assay has the same target. The experiment in a line: Positive allosteric modulation of human alpha7 nAChR expressed in Xenopus laevis oocytes assessed as increase in acetylcholine-induced channel current at 10 uM at -90 mV holding potential preincubated for 2 mins followed by co-application with acetylcholine for 10 secs by two-electrode voltage clamp method relative to control. The class given is cell-based.
Take `Cc1cccc(Cl)c1-n1cnc2nc(SCc3ccccc3F)sc2c1=O`: the %max worked out at 558%.
Still for that read-out and setting: the figure for `Cc1cccc(Cl)c1-n1cnc2nc(Nc3ccccc3)sc2c1=O` is 300%.
Still for that read-out and setting: the figure for `Cc1ccccc1-n1cnc2nc(SCc3ccccc3)sc2c1=O` is 171%.
The same measure, in the same setting: the figure for `Cc1cccc(Cl)c1-n1cnc2nc(Nc3ccc(Br)cc3)sc2c1=O` is 150%; for `Cc1nc(Cl)cc(Nc2nc3ncn(-c4c(C)cccc4Cl)c(=O)c3s2)n1` it is 320%; for `Cc1ccc(Nc2nc3ncn(-c4c(C)cccc4Cl)c(=O)c3s2)cc1C` it is 650%.
Consider `Cc1cc(Cl)cc(Nc2nc3ncn(-c4c(C)cccc4Cl)c(=O)c3s2)c1`, for which the %max stood at 305%.
On the same count and under the same terms, the figure for `Cc1cccc(Cl)c1-n1cnc2nc(SCc3ccc(F)cc3)sc2c1=O` is 788%.
In the case of `Cc1cc(C)cc(Nc2nc3ncn(-c4c(C)cccc4Cl)c(=O)c3s2)c1`, the %max was 1100%.
On the same count and under the same terms, the figure for `Cc1cccc(Cl)c1-n1cnc2nc(Nc3cccc(F)c3)sc2c1=O` is 450%.
The same measure, in the same setting: the entry for `Cc1cccc(Cl)c1-n1cnc2nc(Nc3ccccn3)sc2c1=O` is “inactive”; for `O=c1c2sc(SCc3ccccc3)nc2ncn1-c1cccc(F)c1` it is 119%; for `Cc1ccc(S(=O)(=O)Nc2nc3ncn(-c4c(C)cccc4Cl)c(=O)c3s2)cc1` it is 97%.
Regarding `O=c1c2sc(SCc3ccccc3)nc2ncn1-c1ccc(Cl)cc1`, the %max stood at 104%.
On the same count and under the same terms, the figure for `Cc1ccc(CNc2nc3ncn(-c4c(C)cccc4Cl)c(=O)c3s2)cc1` is 111%; for `Cc1cccc(Cl)c1-n1cnc2nc(SCc3cccc(F)c3)sc2c1=O` it is 1140%; for `Cc1cccc(Cl)c1-n1cnc2nc(SCc3ccc(F)cc3F)sc2c1=O` it is 1050%.
Same read-out and setting: the figure for `Cc1cccc(Cl)c1-n1cnc2nc(SCCc3ccccc3)sc2c1=O` is 112%; for `Cc1cccc(Cl)c1Nc1ncnc2nc(SCc3ccccc3)sc12` it is 33%.
Consider `Cc1cccc(Cl)c1-n1cnc2nc(Nc3ccccc3F)sc2c1=O`, for which the %max worked out at 200%.
On to `Cc1cccc(Cl)c1-n1cnc2nc(SCCCc3ccccc3)sc2c1=O`, for which the %max was 174%.
The same measure, in the same setting: the figure for `COc1ccc(CSc2nc3ncn(-c4c(C)cccc4Cl)c(=O)c3s2)cc1` is 292%; for `Cc1cccc(Cl)c1-n1cnc2nc(Nc3ccc(Cl)cc3)sc2c1=O` it is 200%.
Same read-out and setting: the figure for `O=c1c2sc(SCc3ccccc3)nc2ncn1-c1ccccc1Cl` is 217%.
Still for that read-out and setting: the figure for `Cc1ccc(Nc2nc3ncn(-c4c(C)cccc4Cl)c(=O)c3s2)cc1` is 1620%; for `Cc1cccc(Cl)c1-n1cnc2nc(Nc3cccc(Cl)c3)sc2c1=O` it is 300%.
With `Cc1ccc(Nc2nc3ncn(-c4c(C)cccc4Cl)c(=O)c3s2)cc1F`, the %max came to 387%.
Turning to `Cc1cccc(Cl)c1-n1cnc2nc(NCc3ccccc3)sc2c1=O`, the “%max” value is “inactive”.
On the same count and under the same terms, the figure for `Cc1cccc(Cl)c1-n1cnc2nc(Nc3cc(Cl)ncn3)sc2c1=O` is 200%.
Same read-out and setting: the entry for `Cc1cccc(Cl)c1-n1cnc2nc(Nc3ccc(Cl)nn3)sc2c1=O` is “inactive”.
The same measure, in the same setting: the figure for `Cc1cccc(Cl)c1-n1cnc2nc(Nc3ccncn3)sc2c1=O` is 101%; for `Cc1ccc(Sc2nc3ncn(-c4c(C)cccc4Cl)c(=O)c3s2)cc1` it is 226%.
`Cc1ccccc1Nc1nc2ncn(-c3c(C)cccc3Cl)c(=O)c2s1`: the %max turned out to be 300%.
On the same count and under the same terms, the figure for `Cc1ccc(CSc2nc3ncn(-c4c(C)cccc4Cl)c(=O)c3s2)cc1` is 321%.
Same read-out and setting: the figure for `Cc1cccc(Cl)c1-n1cnc2nc(SCc3ccc(Cl)cc3)sc2c1=O` is 444%; for `Cc1cc(Nc2nc3ncn(-c4c(C)cccc4Cl)c(=O)c3s2)cc(C)c1C` it is 600%.
For `Cc1cccc(Cl)c1-n1cnc2nc(SCc3ccc(Br)cc3)sc2c1=O`, the %max is 320%.
On the same count and under the same terms, the figure for `Cc1cccc(Nc2nc3ncn(-c4c(C)cccc4Cl)c(=O)c3s2)c1` is 1540%; for `Cc1cccc(Cl)c1-n1cnc2nc(Nc3ccc(F)c(F)c3)sc2c1=O` it is 300%; for `Cc1ccc(N(C)c2nc3ncn(-c4c(C)cccc4Cl)c(=O)c3s2)cc1` it is 107%.
Still for that read-out and setting: the figure for `Cc1ccc(-c2nc3ncn(-c4c(C)cccc4Cl)c(=O)c3s2)cc1` is 185%.
Consider `O=c1c2sc(SCc3ccccc3)nc2ncn1-c1ccc(F)cc1`, for which the %max amounted to 75%.
Turning to `Cc1ccc(Nc2ccc3ncn(-c4c(C)cccc4Cl)c(=O)c3c2)cc1`, the %max worked out at 63%.
Same read-out and setting: the figure for `Cc1cccc(Cl)c1-n1cnc2nc(Nc3ccc(F)cc3)sc2c1=O` is 250%.
The same measure, in the same setting: the figure for `CCc1ccc(Nc2nc3ncn(-c4c(C)cccc4Cl)c(=O)c3s2)cc1` is 250%; for `Cc1ccc(C(=O)Nc2nc3ncn(-c4c(C)cccc4Cl)c(=O)c3s2)cc1` it is 450%; for `O=c1c2sc(SCc3ccccc3)nc2ncn1-c1ccccc1F` it is 127%.
Consider `COc1ccc(Nc2nc3ncn(-c4c(C)cccc4Cl)c(=O)c3s2)cc1`, for which the %max was 200%.
Same read-out and setting: the entry for `CCCNc1nc2ncn(-c3c(C)cccc3Cl)c(=O)c2s1` is “inactive”; for `Cc1cccc(Cl)c1-n1cnc2nc(Nc3ccc(OC(F)(F)F)cc3)sc2c1=O` it is 200%.

Broadly, the EC50 is the concentration at which the effect is half-maximal.
